Ends that are not written are not given here.
B1: rLG3: recombinant His6-tagged human laminin α2 chain LG3 domain, amino acids 2537 to 2745 (protein, listed as Homo sapiens)
chain: VELSPVPIDVGTEINLSFSTKNESGIILLGSGGTPAPPRRKRRQTGQAYYVILLNRGRLEVHLSTGARTMRKIVIRPEPNLFHDGREHSVHVERTRGIFTVQVDENRRYMQNLTVEQPIEVKKLFVGGAPPEFQPSPLRNIPPFEGCIWNLVINSVPMDFARPVSFKNADIGRCAHQKLREDEDGAAPAEIVIQPEPVPTPAFPTPTPV
modifications: His6 tag

Columns and labels:
Type in all cases: cell-based, rat
PC12 cells [1] = assay: Cell adhesion assay on coated plates (crystal violet, absorbance 570 nm); conditions: 1 h, serum-free; for cell adhesion: PC12 cells on coated plates, laminin 5 μg/mL, rLG proteins 25 μg/mL, peptides 62.5 μg/mL (0 to 125 μg/mL in FIG. 2B)
Experimental: The cell adhesion assay was performed as described in a paper published previously by the present inventors (Kim, J. M., et al, Exp. Cell Res, 2005).
Specifically, 24-well culture plates (Nunc, Denmark) were coated with 5 μg/mL human placental laminin (Sigma-Aldrich, St. Louis, Mo.) or 25 μg/mL rLG domain proteins for 12 h at 4° C. The peptides were also coated on the plates by drying for 12 h at room temperature. The substrate-coated plates were blocked with 1% heat-inactivated bovine serum albumin (BSA) in PBS for 1 h at 37° C. and then washed with PBS.
The cells were trypsinized with trypsin/EDTA and resuspended in serum-free culture medium. The cells were added at a density of 2×10^5 cells/500 μL to each plate and incubated in serum-free culture medium for 1 h at 37° C. After incubation, unattached cells were removed by rinsing twice with PBS. The attached cells were fixed with 10% formalin for 15 min and then stained with 0.5% crystal violet for 1 h. Plates were gently washed with distilled water three times and dissolved with 2% SDS for 5 min. Absorbance was measured at 570 nm using a microplate reader (BioRad).
First, PC12 cells were cultured on plates coated with varying amounts of five kinds of Ln2-PG3 peptides and then cell adhesion was observed. The peptides were coated in concentrations ranging from 0 to 125 μg/mL on plates by drying them for 12 h at room temperature.
(§1) The present inventors compared the cellular activities of Ln2-LG3-P2 peptide to scrambled peptide (SEQ ID NO:20, NWEIRCIPGNPF) of Ln2-LG3-P2 peptide and Ln2-LG3-P1 peptide to Ln2-LG3-P5 peptide at a concentration of 62.5 μg/mL where the cell adhesion activity was the maximum. […] PC12 cells were cultured on plates which were coated in the same way for 3 h in serum-free medium and the cell spreading was observed.
(§2) Specifically, to observe cell adhesion, spreading, migration, and neurite outgrowth promotion, the methods described in Experimental examples <2-1> to <2-3> were used and PC12 cells were cultured on plates coated with laminin (5 μg/mL), rLG3 (25 μg/mL), and rLG3-M1 (25 μg/mL) and observed. To observe cell adhesion, PC12 cells were incubated on the coated plates for 1 h and to observe cell spreading, PC12 cells were incubated on the coated plates for 3 h. To observe cell migration, PC12 cells were incubated on the coated plates for […].
(§3) To measure cell adhesion, spreading, migration, and neurite outgrowth promotive activities of PC12 cells using the prepared synthetic peptides that are N- and C-terminal truncated or C-terminal added peptides of the Ln2-LG3-P2 peptide, peptides described in Table 1 were coated onto plates at 62.5 μg/mL and PC12 cells were seeded thereon.

PC12 cells [2] = assay: Cell spreading assay on coated plates (cell surface area); conditions: 3 h, laminin 5 μg/mL, rLG proteins 25 μg/mL, peptides 62.5 μg/mL
Experimental: To determine cell spreading assays, the cells cultured on plates coated with each rLG domain protein for 1 h or 3 h in Experimental example <2-1> were fixed with 10% formalin. Then, the fixed cells were stained with 0.05% crystal violet for 1 h and plates were gently washed with PBS three times. The surface area of cells was measured with Image-Pro plus software (Version 4.5; Media Cybernetics, Silver Spring, Md.).
as §1, §2, §3

PC12 cells [3] = assay: Immunostaining of actin stress fibers and focal adhesions; conditions: PC12 cells on coated chamber slides, 3 h, serum-free
Experimental: Specifically, for immunostaining, PC12 cells were incubated on Lab-Tek chamber slides (Nalge Nunc International, Rochester, N.Y.) coated with laminin (5 μg/mL), rLG domain proteins (25 μg/mL), or Scrambled peptide (SP) (25 μg/well) in serum-free medium for 3 h at 37° C. Lab-Tek chamber slides were coated with BSA for the control. After rinsing with PBS, PC12 cells were fixed with 3.7% formalin for 20 min and permeabilized with 0.5% Triton X-100 for 5 min. PC12 cells were incubated with primary antibodies for 12 h at 4° C. The primary antibodies used were 1:500 anti-vinculin (Sigma-Aldrich 9131), or 1:300 rhodamin-phalloidin (Invitrogen R154) antibodies. After rinsing with PBS, PC12 cells were immunostained with FITC-conjugated anti-mouse IgG antibody (Jackson ImmunoResearch Laboratories, West Grove, Pa.) or rhodamin-conjugated anti-mouse IgG antibody (Santa Cruz Biotechnology) for 1 h at room temperature. After being washed three times with PBS, the stained PC12 cells were mounted and photographed using a confocal laser scanning microscope (FV300; Olympus, Japan).

FAK Tyr-397 = assay: FAK phosphorylation by western blotting; conditions: PC12 cells on coated dishes; 15, 30, 60 min
Experimental: For measuring FAK phosphorylation, specifically, PC12 cells were starved for 12 h by replacing RPMI 1640 medium with 0.1% FBS. PC12 cells (2×10^6 cells) were plated on 60-mm dishes precoated with laminin (5 μg/mL), rLG3 (25 μg/mL), or Ln2-LG3-P2 (25 μg/well), and allowed to adhere for the indicated times (15 min, 30 min, and 60 min). Cells were washed with ice-cold PBS and lysed with 200 μL of RIPA buffer (50 mM Tris-HCl, pH 7.4, 150 mM NaCl, 1 mM EDTA 1% Triton X-100, 1 mM PMSF, 2 mM Na3VO4, 1 mM glycerol phosphate) containing a protease inhibitor cocktail. RIPA lysates were denatured using SDS sample buffer (50 mM Tris/HCl, pH 6.8, 2% SDS, 10% glycerol, 0.1% bromophenol blue, 50 mM dithiothreitol) and analysed by SDS-PAGE. The separated proteins were electroblotted onto an Immobilon-P membrane (Millipore, Bedford, Mass.) and probed with primary antibodies to FAK Tyr-397 (Biosource, Camarillo, Calif.), FAK (Upstate Biotechnology Inc., Lake Placid, N.Y.). All blots were then detected with HRP-conjugated secondary antibodies (Cell Signaling). Signals were detected by ECL (iNtRON Biotechnology, Korea).

PKCδ = assay: Tyrosine phosphorylation of PKCδ (immunoprecipitation and Western blotting); conditions: PC12 cells on coated dishes, 30 min
Experimental: PC12 cells were incubated on dishes coated with laminin, rLG3, or the Ln2-LG3-P2 peptide for 30 min and the interaction of PKCδ with phosphotyrosine was examined using immunoprecipitation and Western blotting.

Row | Molecule | cell adhesion (PC12 cells [1]) | cell spreading (PC12 cells [2]) | actin stress fiber formation and focal adhesions (PC12 cells [3]) | cell spreading (immunostaining) (PC12 cells [3]) | time at which FAK phosphorylation levels at Tyr-397 peaked (FAK Tyr-397) [min] | tyrosine phosphorylation of PKCδ (PKCδ) | coating concentration at which cell adhesion activity reached the maximum level (PC12 cells [1]; PC12 cells) [µg/mL]
1 | laminin [reference compound] | promoted cell adhesion | promoted cell spreading | formed actin stress fibers and focal adhesions | spread very well | 15 | increased | 
2 | RNIPPFEGCIWN (RNIPPFEGCIWN-NH2; listed as Homo sapiens) [Ln2-LG3-P2, 12-mer peptide, position 2675 to 2686 in human laminin α2 chain] | promoted the cell adhesion | comparable to that of rLG3 | formed stress fiber formation, and focal adhesions but to a lesser degree than those on laminin | spread well | 15 | increased | 62.5
3 | B1 | adhered to rLG1, rLG3, and rLG4 in a dose-dependent manner | induced cell spreading | formed stress fiber formation, and focal adhesions but to a lesser degree than those on laminin | spread well | 15 | increased | 
